Experimental data taken from paper PMC7155171, “Probing the Open Global Health Chemical Diversity Library for Multistage-Active Starting Points for Next-Generation Antimalarials” (ACS Infectious Diseases, 2020).
Like-named read-outs stand apart in the source and are kept apart here.

How the values were obtained:
[1] = test system: P. falciparum Dd2 (PfLuc) line expressing firefly luciferase, asexual blood stage; assay: microbe, parasite or virus in culture; type: cell-based, Plasmodium falciparum; details: for IC50 / Emax: Plasmodium falciparum
P. falciparum Dd2 = assay: SYBR green I asexual blood stage proliferation assay (96 h); type: cell-based, Plasmodium falciparum; details: for IC50 / Emax: Plasmodium falciparum
[2] = DD2, read-out: CDD P. falciparum Luciferase ABS 11-pt Reconfirmation Dose Response (48hr): IC50 (μM), 11-pt dose response, 48hr
[3] = DD2, 8-pt dose response, 96hr, read-out: CDD P. falciparum Luciferase ABS 8-pt Reconfirmation Dose Response (96hr): IC50
[4] = DD2, 8-pt dose response, 96hr, read-out: CDD P. falciparum Luciferase ABS 8-pt Reconfirmation Dose Response (96hr): Maximum inhibition (%)
[5] = DD2, 11-pt dose response, 48hr, read-out: CDD P. falciparum Luciferase ABS 11-pt Reconfirmation Dose Response (48hr): Maximum inhibition (%)
[6] = DD2, 11-pt dose response, 96hr, read-out: CDD P. falciparum Luciferase ABS 11-pt Reconfirmation Dose Response (96hr): IC50
[7] = DD2, 11-pt dose response, 96hr, read-out: CDD P. falciparum Luciferase ABS 11-pt Reconfirmation Dose Response (96hr): Maximum inhibition (%)
[8] = DD2, Sybr Green I, 11-pt dose response, 96hr, read-out: CDD P. falciparum Sybr Green I ABS 11-pt Reconfirmation Dose Response (96hr): IC50
[9] = DD2, Sybr Green I, 11-pt dose response, 96hr, read-out: CDD P. falciparum Sybr Green I ABS 11-pt Reconfirmation Dose Response (96hr): Maximum inhibition (%)

SMILES	IC50 [1, 2]	IC50 [1, 3]	Emax [1, 4]	Emax [1, 5]	IC50 [1, 6]	Emax [1, 7]	IC50 (P. falciparum Dd2; [8])	Emax (P. falciparum Dd2; [9])	further results
CC(O)c1cccc(Nc2nc(NCCO)c3ccccc3n2)c1 (stereo not drawn) [DDD01037968]	2.9 µM	0.29 µM	92.4%	96.3%	0.739 µM	99.6%	3130 nM	95.8%	activity in ABS screens [1]: active in ABS screens
CCN(CC)CCNS(=O)(=O)c1cccc(CSC)c1 [DDD01038216]	10.2 µM	0.58 µM	87.3%	58.8%	2.99 µM	89.5%	7550 nM	73.7%	
Oc1ccc(Cl)cc1CNCc1ccccc1Cl [DDD01038243]	> 12.5 µM	1.02 µM	90.3%	59.4%	4.2 µM	88.4%	> 12500 nM	34.6%	
Oc1ccc(Cl)cc1CNCc1cccc(C(F)(F)F)c1 [DDD01038245]	> 4.16 µM	0.82 µM	91.9%	64%	10.6 µM	79.2%	3030 nM	95.3%	
Cc1ccccc1CNCc1cc(Cl)ccc1O [DDD01038246]	11 µM	0.64 µM	92.4%	69.3%	5.6 µM	89.5%	2600 nM	97.5%	
COc1cccc(CNCc2ccccc2Cl)c1O [DDD01038247]	7.91 µM	0.9 µM	89.5%	79.1%	1.97 µM	96.2%	5220 nM	87.5%	
COc1cccc(CNCc2cccc(Cl)c2)c1O [DDD01038248]	4.63 µM	0.99 µM	92.4%	87.8%	1.9 µM	98%	2690 nM	92.1%	
COc1cccc(CNCc2ccc(F)cc2Cl)c1O [DDD01038249]	> 4.16 µM	0.94 µM	87.2%	36%	2.78 µM	95.4%	> 4160 nM	92.8%	
COc1cccc(CNCc2ccc(F)c(Cl)c2)c1O [DDD01038250]	3.18 µM	0.56 µM	93.8%	93.8%	1.4 µM	99.2%	1970 nM	98.2%	
Cc1cccc(NC(=O)c2cccc(OCc3nnnn3C)c2)n1 [DDD01038630]	0.916 µM	0.34 µM	94.9%	99.2%	> 0.462 µM	99.5%	2540 nM	99.2%	
CN[C@@H]1CCC[C@@H](Oc2ccccc2Oc2ccc(C)cc2)[C@@H]1O [DDD01056673]	1.83 µM	0.52 µM	96%	97%	0.625 µM	99.7%	2330 nM	99.2%	
c1cnc(N2CCC(c3csc(Nc4cnccn4)n3)CC2)nc1 [DDD01056714, C1CN(CCC1c1csc(Nc2cnccn2)n1)c1ncccn1]									IC50 ([1]; DD2, read-out: CDD P. falciparum Luc 11pt dose response (96hr, n=2): IC50 (μM), 96hr, 11-point, n=2): 0.0286 µM; IC50 ([1]; DD2, read-out: CDD P. falciparum Luciferase 11pt dose response (48hr, n=2): IC50 (μM), 48hr, 11-point, n=2): 0.0592 µM; Emax ([1]; DD2, 48hr, 11-point, read-out: CDD P. falciparum Luciferase ABS 11-pt Reconfirmation Dose Response (48hr): Maximum inhibition (%)): 82.6%; Emax ([1]; DD2, 96hr, 11-point, read-out: CDD P. falciparum Luciferase ABS 11-pt Reconfirmation Dose Response (96hr): Maximum inhibition (%)): 94.8%; CDD P. falciparum Sybr Green I ABS Dd2 Dose Response: Maximum measured (%) (P. falciparum Dd2; Dd2, 96 h): 55.9%; IC50 (P. falciparum Dd2; DD2, 96 h, read-out: CDD P. falciparum Sybr Green I ABS Dd2 Dose Response: IC50): > 4160 nM
CCC(C)(C)n1nnnc1C(c1cccs1)N1CCc2ccccc2C1 (stereo not drawn) [DDD01056726]	3.18 µM	0.56 µM	91.1%	71.7%	0.803 µM	93.7%	4960 nM	79.3%	
Cc1cccc(C)c1Nc1noc2c1CN(C(=O)c1ccnn1C)CC2 [DDD01056796]	0.425 µM	0.14 µM	96.7%	98.3%	0.328 µM	101%	266 nM	96.3%	
Cc1cccc(C)c1Nc1noc2c1CN(C(=O)c1cn(C)cn1)CC2 [DDD01056797]	0.494 µM	0.23 µM	95.7%	99.4%	0.535 µM	101%	220 nM	97.2%	
Cc1cccc(C)c1Nc1noc2c1CN(C(=O)c1c[nH]nc1C)CC2 [DDD01056871]	1.9 µM	0.77 µM		87.7%	1.38 µM	96.9%	2520 nM		
Cc1ccc(CN(CCN(C)C)Cc2c(C)nc3sccn23)o1 [DDD01056924]									IC50 ([1]; DD2, read-out: P. falciparum Luciferase ABS 11-pt Reconfirmation Dose Response (48hr): IC50, 11-pt dose response, 48hr): > 12.5 µM; IC50 ([1]; DD2, 8-pt dose response, 96hr, read-out: P. falciparum Luciferase ABS 8-pt Reconfirmation Dose Response (96hr): IC50): 1.82 µM; Emax ([1]; DD2, 11-pt dose response, 48hr, read-out: P. falciparum Luciferase ABS 11-pt Reconfirmation Dose Response (48hr): Maximum inhibition (%)): 65.3%; IC50 ([1]; DD2, 11-pt dose response, 96hr, read-out: P. falciparum Luciferase ABS 11-pt Reconfirmation Dose Response (96hr): IC50): 2.43 µM; Emax ([1]; DD2, 11-pt dose response, 96hr, read-out: P. falciparum Luciferase ABS 11-pt Reconfirmation Dose Response (96hr): Maximum inhibition (%)): 88.8%; IC50 (P. falciparum Dd2; DD2, 11-pt dose response, 96hr, read-out: P. falciparum Sybr Green I ABS 11-pt Reconfirmation Dose Response (96hr): IC50): > 4160 nM; Emax (P. falciparum Dd2; DD2, 11-pt dose response, 96hr, read-out: P. falciparum Sybr Green I ABS 11-pt Reconfirmation Dose Response (96hr): Maximum inhibition (%)): 52.1%
Cc1cccc(C)c1Nc1noc2c1CN(C(=O)c1ccn(C)n1)CC2 [DDD01057030]	0.885 µM	0.26 µM	96.3%	97.1%	0.693 µM	99.6%	913 nM	95.5%	
CCCNc1cc(-c2c[nH]nc2C2CCN(C(=O)C3CCC3)C2)ccn1 (stereo not drawn) [DDD01057089]	4.01 µM	0.31 µM	96.1%	86.1%	1.63 µM	97.9%	1340 nM	61.5%	
NC1CCc2nc(-c3cccnc3)nc(Nc3ccc(F)cc3)c2C1 (stereo not drawn) [DDD01057099]	3.56 µM	0.24 µM	96.1%	98.4%	0.99 µM	100%	1310 nM	100%	
